Source: patent US20100190742A1, “COSMETIC/PHARMACEUTICAL COMPOSITIONS COMPRISING HYALURONIC ACID AND ADMINISTRATION THEREOF FOR REDUCING SIGNS OF AGING” (L'OREAL, priority 2007, published 2010)

Test system: CD44
Test: Expression of CD44 on cultured normal human skin explants, indirect immunoperoxidase histochemistry
Format: cell-based
Settings: for Histochemical analysis of the CD44 receptor (semiquantitative scores), Mean ± sd n = 8: skin explants cultured 14 days
Protocol: CD44 is a transmembrane glycoprotein with a molecular weight of 80-95 kDa (CD44). The increase in the expression of this receptor at the surface of the cells of the skin improves the binding of hyaluronic acid, collagen and fibronectin. This binding makes possible in particular hydration of the dermis and epidermis.
Normal human skin fragments are obtained by plastic surgery and are deposited in culture plates. The skin explants are cultured for 14 days and compound A is added daily at 0.3 or 3 mM. At the end of culturing, the skin explants are fixed in Bouin's fluid and embedded in paraffin wax. Sections are produced and the receptor is visualized by a 3-layer indirect immunoperoxidase technique (ABC peroxidase kit, Vector Laboratories).
Histochemical analysis of the CD44 receptor (semiquantitative scores);

CC(O)C[C@@H]1OC[C@@H](O)[C@H](O)[C@H]1O (stereo partly drawn) [compound A, C-β-D-xylopyranoside-2-hydroxypropane]
activity on expression of CD44 (in words) (0.3 mM): present
activity on expression of CD44 (in words) (higher concentration (3 mM)): again encountered
Histochemical analysis of the CD44 receptor (semiquantitative scores), Mean ± sd n = 8 (compound added daily at 0.3 mM): 2.30 ± 1.00
Histochemical analysis of the CD44 receptor (semiquantitative scores), Mean ± sd n = 8 (compound added daily at 3.0 mM): 2.00 ± 1.10
expression of CD44 (histological evaluation, in words) (skin explants treated daily for 14 days): significant increase
